Experimental data taken from US8785457B2 (Cellzome Limited, priority 2009, dated 2014).

Legend:
mTOR = target: T1, mTOR (Homo sapiens, UniProt P42345); assay: mTOR kinobeads assay (competitive binding in Jurkat cell lysate, immunodetection); details: kinobeads assay, Table 6; read-out: Inhibition values (IC50) mTOR
T1 construct: endogenous in cells; host or cells: Jurkat, clone E6-1 (ATCC TIB-152) cell lysate
Summary of the method: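 IC50 derived from dose-response curves of mTOR captured on immobilized phenylmorpholin-chromen beads, detected by antibody dot blot with infrared fluorescence.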

PI3Kalpha (PI3Ka) = target: T2, PI3Kalpha (PI3Ka) (Homo sapiens, UniProt P42336); assay: kinobeads assay, PI3Kalpha; assay type: binding; details: kinobeads assay, Table 6; for IC50: read-out: Inhibition values (IC50) PI3Ka
T2 construct: endogenous in cells; host or cells: cell lysate
T2 sequence (P42336 whole entry): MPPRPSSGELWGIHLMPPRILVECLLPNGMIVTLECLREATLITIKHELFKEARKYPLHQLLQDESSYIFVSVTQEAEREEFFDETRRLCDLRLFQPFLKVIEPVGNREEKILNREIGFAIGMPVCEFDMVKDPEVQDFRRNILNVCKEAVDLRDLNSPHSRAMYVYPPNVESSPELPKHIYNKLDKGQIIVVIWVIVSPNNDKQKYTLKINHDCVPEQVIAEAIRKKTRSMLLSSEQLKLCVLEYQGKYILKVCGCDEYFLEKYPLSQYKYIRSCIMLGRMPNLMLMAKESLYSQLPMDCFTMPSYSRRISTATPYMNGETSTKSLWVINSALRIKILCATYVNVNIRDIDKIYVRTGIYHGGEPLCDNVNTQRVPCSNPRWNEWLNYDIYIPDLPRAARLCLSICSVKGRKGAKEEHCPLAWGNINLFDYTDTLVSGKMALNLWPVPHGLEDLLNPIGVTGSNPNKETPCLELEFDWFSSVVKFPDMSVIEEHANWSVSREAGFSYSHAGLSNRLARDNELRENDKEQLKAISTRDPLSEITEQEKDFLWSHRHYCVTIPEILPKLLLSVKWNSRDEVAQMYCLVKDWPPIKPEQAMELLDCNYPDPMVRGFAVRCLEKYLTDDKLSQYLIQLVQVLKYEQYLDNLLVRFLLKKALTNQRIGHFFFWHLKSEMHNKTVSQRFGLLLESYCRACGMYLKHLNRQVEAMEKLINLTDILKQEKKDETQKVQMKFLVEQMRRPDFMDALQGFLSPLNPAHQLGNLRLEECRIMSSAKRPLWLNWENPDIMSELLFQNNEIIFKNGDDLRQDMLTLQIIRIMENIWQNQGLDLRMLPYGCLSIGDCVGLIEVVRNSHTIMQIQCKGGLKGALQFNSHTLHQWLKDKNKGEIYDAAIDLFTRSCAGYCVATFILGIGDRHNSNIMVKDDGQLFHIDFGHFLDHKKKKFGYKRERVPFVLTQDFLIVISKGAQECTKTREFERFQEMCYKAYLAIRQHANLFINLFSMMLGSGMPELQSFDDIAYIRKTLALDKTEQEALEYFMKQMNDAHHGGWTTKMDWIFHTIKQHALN
T2 sequence (P27986 whole entry partner): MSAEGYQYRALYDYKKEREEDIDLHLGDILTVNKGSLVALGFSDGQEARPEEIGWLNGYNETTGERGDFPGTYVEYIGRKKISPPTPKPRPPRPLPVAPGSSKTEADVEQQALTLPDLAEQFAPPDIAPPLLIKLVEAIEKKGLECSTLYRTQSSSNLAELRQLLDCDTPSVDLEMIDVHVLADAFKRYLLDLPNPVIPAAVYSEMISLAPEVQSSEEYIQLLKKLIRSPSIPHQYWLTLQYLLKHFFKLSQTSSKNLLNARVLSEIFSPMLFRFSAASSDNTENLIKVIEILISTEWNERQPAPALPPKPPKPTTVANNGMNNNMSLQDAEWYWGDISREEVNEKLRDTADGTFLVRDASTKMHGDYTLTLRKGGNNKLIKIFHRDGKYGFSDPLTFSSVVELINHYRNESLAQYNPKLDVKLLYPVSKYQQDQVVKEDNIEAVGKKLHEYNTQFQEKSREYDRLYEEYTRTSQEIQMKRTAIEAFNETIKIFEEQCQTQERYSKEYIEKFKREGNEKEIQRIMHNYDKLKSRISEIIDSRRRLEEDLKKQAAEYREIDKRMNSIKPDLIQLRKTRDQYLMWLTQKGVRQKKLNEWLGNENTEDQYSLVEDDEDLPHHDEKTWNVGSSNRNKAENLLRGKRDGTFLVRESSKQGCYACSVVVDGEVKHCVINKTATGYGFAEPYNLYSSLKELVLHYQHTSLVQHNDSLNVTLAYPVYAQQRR
Summary of the method: (§1)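 Test compounds at various concentrations were added to cell lysate together with beads carrying an immobilized phenylmorpholin-chromen ligand, competing for kinase binding. Captured proteins were separated, eluted and quantified by multiplexed immunodetection; IC50 values came from dose-response curves for each kinase.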

PI3 Kbeta (PI3 Kb) = target: T3, PI3 Kbeta (PI3 Kb) (Homo sapiens, UniProt P42338); assay: kinobeads assay, PI3Kbeta; assay type: binding; details: kinobeads assay, Table 6; read-out: Inhibition values (IC50) PI3Kb
T3 construct: endogenous in cells; host or cells: cell lysate
T3 sequence (P42338 whole entry): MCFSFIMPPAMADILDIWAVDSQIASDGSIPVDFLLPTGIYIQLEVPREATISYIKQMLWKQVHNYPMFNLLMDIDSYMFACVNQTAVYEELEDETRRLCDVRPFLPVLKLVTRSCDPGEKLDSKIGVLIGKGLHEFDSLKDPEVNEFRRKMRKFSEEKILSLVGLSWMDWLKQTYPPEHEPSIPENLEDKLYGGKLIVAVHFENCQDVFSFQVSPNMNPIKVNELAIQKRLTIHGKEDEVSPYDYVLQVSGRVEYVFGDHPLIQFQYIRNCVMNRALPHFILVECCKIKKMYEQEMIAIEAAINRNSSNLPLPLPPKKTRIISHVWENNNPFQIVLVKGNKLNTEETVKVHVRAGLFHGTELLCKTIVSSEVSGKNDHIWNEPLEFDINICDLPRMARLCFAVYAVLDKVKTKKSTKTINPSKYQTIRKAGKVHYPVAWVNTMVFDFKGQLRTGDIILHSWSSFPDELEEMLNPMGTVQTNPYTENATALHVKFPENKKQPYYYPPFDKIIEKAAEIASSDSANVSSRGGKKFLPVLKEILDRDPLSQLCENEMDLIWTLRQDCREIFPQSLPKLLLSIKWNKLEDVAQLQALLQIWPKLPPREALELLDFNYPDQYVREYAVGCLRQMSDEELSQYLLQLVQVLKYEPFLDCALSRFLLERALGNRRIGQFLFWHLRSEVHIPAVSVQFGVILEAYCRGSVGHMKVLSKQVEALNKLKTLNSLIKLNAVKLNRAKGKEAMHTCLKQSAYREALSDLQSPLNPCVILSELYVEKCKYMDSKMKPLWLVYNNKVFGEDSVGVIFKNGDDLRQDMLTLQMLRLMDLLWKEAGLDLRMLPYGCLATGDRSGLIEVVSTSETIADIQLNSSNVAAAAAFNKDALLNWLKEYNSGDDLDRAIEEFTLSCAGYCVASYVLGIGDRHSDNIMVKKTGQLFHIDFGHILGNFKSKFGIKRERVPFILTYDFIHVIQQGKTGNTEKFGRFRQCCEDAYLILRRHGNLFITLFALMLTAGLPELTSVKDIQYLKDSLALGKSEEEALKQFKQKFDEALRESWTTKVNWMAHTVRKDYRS
T3 sequence (P27986 whole entry partner): as the sequence (P27986 whole entry partner) above
Summary of the method: as §1

Structure (SMILES) | IC50 (mTOR) [nM] | Inhibition values (IC50) PI3Ka (PI3Kalpha (PI3Ka)) | IC50 (PI3 Kbeta (PI3 Kb)) [µM] | IC50 (PI3Kalpha (PI3Ka)) [µM]
CCNC(=O)Nc1ccc(-c2nc3c(c(N4CCOC[C@@H]4C)n2)CN(CC(C)(C)C)C3)cc1 [Example 67, (S)-1-ethyl-3-(4-(4-(3-methylmorpholino)-6-neopentyl-6,7-dihydro-5H-pyrrolo[3,4-d]pyrimidin-2-yl)phenyl)urea] | 100 to 1000 | D (D >10 μM) | > 10 | 
CCNC(=O)Nc1ccc(-c2nc3c(c(N4CCOCC4)n2)CN(C(=O)OCC)C3)cc1 [Example 70, Ethyl 2-(4-(3-ethylureido)phenyl)-4-morpholino-5H-pyrrolo[3,4-d]pyrimidine-6(7H)-carboxylate] | < 100 | D (D >10 μM) | > 10 | 
Cc1cc(NC(=O)Nc2ccc(-c3nc4c(c(N5CCOC[C@@H]5C)n3)CN(C)C4)cc2)no1 [Example 72, (S)-1-(4-(6-methyl-4-(3-methylmorpholino)-6,7-dihydro-5H-pyrrolo[3,4-d]pyrimidin-2-yl)phenyl)-3-(5-methylisoxazol-3-yl)urea] | 100 to 1000 | D (D >10 μM) | > 10 | 
C[C@H]1COCCN1c1nc(-c2ccc(NC(=O)NCCO)cc2)nc2c1CN(C)C2 [Example 73, (S)-1-(2-hydroxyethyl)-3-(4-(6-methyl-4-(3-methylmorpholino)-6,7-dihydro-5H-pyrrolo[3,4-d]pyrimidin-2-yl)phenyl)urea] | < 100 |  | 1 to 10 | 1 to 10
CCNC(=O)Nc1ccc(-c2nc3c(c(N4CCOC[C@@H]4C)n2)CCN(CC(C)C)C3)cc1.O=CO [Example 76, (S)-1-ethyl-3-(4-(7-isobutyl-4-(3-methylmorpholino)-5,6,7,8-tetrahydropyrido[3,4-d]pyrimidin-2-yl)phenyl)urea formate] | < 100 | D (D >10 μM) | > 10 | 
CCNC(=O)Nc1ccc(-c2nc3c(c(N4CCOC[C@@H]4C)n2)CCN(C(=O)OCC)C3)cc1 [Example 77, (S)-ethyl 2-(4-(3-ethylureido)phenyl)-4-(3-methylmorpholino)-5,6-dihydropyrido[3,4-d]pyrimidine-7(8H)-carboxylate] | < 100 | D (D >10 μM) | > 10 | 
C[C@H]1COCCN1c1nc(-c2ccc(NC(=O)Nc3cccc(O)n3)cc2)nc2c1CN(C)C2 [Example 80, (S)-1-(6-hydroxypyridin-2-yl)-3-(4-(6-methyl-4-(3-methylmorpholino)-6,7-dihydro-5H-pyrrolo[3,4-d]pyrimidin-2-yl)phenyl)urea] | < 100 |  | 1 to 10 | 1 to 10
C[C@H]1COCCN1c1nc(-c2ccc(NC(=O)Nc3ccn(C)n3)cc2)nc2c1CN(C)C2 [Example 84, (S)-1-(1-methyl-1H-pyrazol-3-yl)-3-(4-(6-methyl-4-(3-methylmorpholino)-6,7-dihydro-5H-pyrrolo[3,4-d]pyrimidin-2-yl)phenyl)urea] | 100 to 1000 |  | > 10 | 1 to 10
CCNC(=O)Nc1ccc(-c2nc3c(c(N4CCOC[C@@H]4C)n2)CN(C)C3)cc1F [Example 85, (S)-1-ethyl-3-(2-fluoro-4-(6-methyl-4-(3-methylmorpholino)-6,7-dihydro-5H-pyrrolo[3,4-d]pyrimidin-2-yl)phenyl)urea] | 100 to 1000 | D (D >10 μM) | > 10 | 
CCNC(=O)Nc1ccc(-c2nc3c(c(N4CCOC[C@@H]4C)n2)CCN(C(=O)NCC)C3)cc1 [Example 87, (S)—N-ethyl-2-(4-(3-ethylureido)phenyl)-4-(3-methylmorpholino)-5,6-dihydropyrido[3,4-d]pyrimidine-7(8H)-carboxamide] | < 100 | D (D >10 μM) | > 10 | 
CCNC(=O)N1CCc2c(nc(-c3ccc(NC(=O)NC4CC4)cc3)nc2N2CCOC[C@@H]2C)C1 [Example 88, (S)-2-(4-(3-cyclopropylureido)phenyl)-N-ethyl-4-(3-methylmorpholino)-5,6-dihydropyrido[3,4-d]pyrimidine-7(8H)-carboxamide] | < 100 | D (D >10 μM) | > 10 | 
CCNC(=O)Nc1ccc(-c2nc3c(c(N4CCOC[C@@H]4C)n2)CN(C(=O)OC)C3)cc1 [Example 89, (S)-methyl 2-(4-(3-ethylureido)phenyl)-4-(3-methylmorpholino)-5H-pyrrolo[3,4-d]pyrimidine-6(7H)-carboxylate] | < 100 | D (D >10 μM) | > 10 | 
CCNC(=O)Nc1ccc(-c2nc3c(c(N4CCOCC4)n2)CCN(C(=O)NCC)C3)cc1 [Example 94, N-ethyl-2-(4-(3-ethylureido)phenyl)-4-morpholino-5,6-dihydropyrido[3,4-d]pyrimidine-7(8H)-carboxamide] | 100 to 1000 |  | > 10 | 1 to 10
CCNC(=O)Nc1ccc(-c2nc3c(c(N4CCOCC4)n2)CCN(C(=O)OCC)C3)cc1 [Example 96, ethyl 2-(4-(3-ethylureido)phenyl)-4-morpholino-5,6-dihydropyrido[3,4-d]pyrimidine-7(8H)-carboxylate] | 100 to 1000 | D (D >10 μM) | > 10 | 

Other lines, results leading:

IC50 (mTOR) [nM] | Inhibition values (IC50) PI3Ka (PI3Kalpha (PI3Ka)) | IC50 (PI3 Kbeta (PI3 Kb)) [µM] | IC50 (PI3Kalpha (PI3Ka)) [µM] | Structure (SMILES)
< 100 | D (D >10 μM) | > 10 |  | CCNC(=O)Nc1ccc(-c2nc3c(c(N4CCOC[C@@H]4C)n2)CN(CC(C)C)C3)cc1 [Example 66, (S)-1-ethyl-3-(4-(6-isobutyl-4-(3-methylmorpholino)-6,7-dihydro-5H-pyrrolo[3,4-d]pyrimidin-2-yl)phenyl)urea]
100 to 1000 | D (D >10 μM) | > 10 |  | CCNC(=O)Nc1ccc(-c2nc3c(c(N4CCOC[C@@H]4C)n2)CN(CC(F)(F)F)C3)cc1 [Example 68, (S)-1-ethyl-3-(4-(4-(3-methylmorpholino)-6-(2,2,2-trifluoroethyl)-6,7-dihydro-5H-pyrrolo[3,4-d]pyrimidin-2-yl)phenyl)urea]
< 100 |  | 1 to 10 | 1 to 10 | CCNC(=O)Nc1ccc(-c2nc3c(c(N4CCOCC4)n2)CN(C)C3)cc1 [Example 69, 1-Ethyl-3-(4-(6-methyl-4-morpholino-6,7-dihydro-5H-pyrrolo[3,4-d]pyrimidin-2-yl)phenyl)urea]
< 100 |  | 1 to 10 | 1 to 10 | C[C@H]1COCCN1c1nc(-c2ccc(NC(N)=O)cc2)nc2c1CN(C)C2 [Example 71, (S)-1-(4-(6-methyl-4-(3-methylmorpholino)-6,7-dihydro-5H-pyrrolo[3,4-d]pyrimidin-2-yl)phenyl)urea]
< 100 | D (D >10 μM) | > 10 |  | CCNC(=O)Nc1ccc(-c2nc3c(c(N4CCOC[C@@H]4C)n2)CN(C(C)C)C3)cc1 [Example 74, (S)-1-ethyl-3-(4-(6-isopropyl-4-(3-methylmorpholino)-6,7-dihydro-5H-pyrrolo[3,4-d]pyrimidin-2-yl)phenyl)urea]
< 100 | D (D >10 μM) | > 10 |  | CCOC(=O)N1CCc2c(nc(-c3ccc(NC(=O)NC4CC4)cc3)nc2N2CCOC[C@@H]2C)C1 [Example 78, (S)-ethyl 2-(4-(3-cyclopropylureido)phenyl)-4-(3-methylmorpholino)-5,6-dihydropyrido[3,4-d]pyrimidine-7(8H)-carboxylate]
< 100 | D (D >10 μM) | > 10 |  | CCNC(=O)Nc1ccc(-c2nc3c(c(N4CCOC[C@@H]4C)n2)CCN(C(=O)OC)C3)cc1 [Example 81, (S)-methyl 2-(4-(3-ethylureido)phenyl)-4-(3-methylmorpholino)-5,6-dihydropyrido[3,4-d]pyrimidine-7(8H)-carboxylate]
< 100 | D (D >10 μM) | > 10 |  | COC(=O)N1CCc2c(nc(-c3ccc(NC(=O)NC4CC4)cc3)nc2N2CCOC[C@@H]2C)C1 [Example 83, (S)-methyl 2-(4-(3-cyclopropylureido)phenyl)-4-(3-methylmorpholino)-5,6-dihydropyrido[3,4-d]pyrimidine-7(8H)-carboxylate]
< 100 | D (D >10 μM) | > 10 |  | COC(=O)N1Cc2nc(-c3ccc(NC(=O)NC4CC4)cc3)nc(N3CCOC[C@@H]3C)c2C1 [Example 86, (S)-methyl 2-(4-(3-cyclopropylureido)phenyl)-4-(3-methylmorpholino)-5H-pyrrolo[3,4-d]pyrimidine-6(7H)-carboxylate]
< 100 | D (D >10 μM) | > 10 |  | CCNC(=O)Nc1ccc(-c2nc3c(c(N4CCOC[C@@H]4C)n2)CN(C(=O)OCC)C3)cc1 [Example 90, (S)-ethyl 2-(4-(3-ethylureido)phenyl)-4-(3-methylmorpholino)-5H-pyrrolo[3,4-d]pyrimidine-6(7H)-carboxylate]
< 100 | D (D >10 μM) | > 10 |  | CCNC(=O)Nc1ccc(-c2nc3c(c(N4CCOC[C@@H]4C)n2)CCN(C(=O)Cc2cccnc2)C3)cc1 [Example 91, (S)-1-ethyl-3-(4-(4-(3-methylmorpholino)-7-(2-(pyridin-3-yl)acetyl)-5,6,7,8-tetrahydropyrido[3,4-d]pyrimidin-2-yl)phenyl)urea]
100 to 1000 | D (D >10 μM) | > 10 |  | CCNC(=O)Nc1ccc(-c2nc3c(c(N4CCOCC4)n2)CCN(C)C3)cc1 [Example 93, 1-ethyl-3-(4-(7-methyl-4-morpholino-5,6,7,8-tetrahydropyrido[3,4-d]pyrimidin-2-yl)phenyl)urea]
